Experimental data taken from patent US9452157B2, “Pharmaceutical compositions comprising rifaximin and amino acids, preparation methods and use thereof” (ALFA WASSERMANN SPA, priority 2012, dated 2016).

Tests used:
[1] = assay type: physicochemical
Experimental: A rifaximin amount corresponding to 200 mg was dissolved in 10 ml of a solution formed by ethanol/water 1:4 (v/v), left for two days under stirring at room temperature.
Rifaximin solubility was determined by wavelength spectrophotometry at wavelength 276 nm with a rifaximin calibration curve.

[2] = WO 2005/044823; cited from earlier work

SMILES	Rifaximin solubility [1]	solubility of rifaximin [1]	water solubility [2]
CO[C@H]1/C=C/O[C@@]2(C)Oc3c(C)c(O)c4c(O)c(c5c(nc6cc(C)ccn65)c4c3C2=O)NC(=O)/C(C)=C\C=C\[C@H](C)[C@H](O)[C@@H](C)[C@@H](O)[C@@H](C)[C@H](OC(C)=O)[C@@H]1C [Rifaximin]	48 µg/mL	48 µg/mL	–
CO[C@H]1/C=C/O[C@@]2(C)Oc3c(C)c(O)c4c(O)c(c5c(nc6cc(C)ccn65)c4c3C2=O)NC(=O)/C(C)=C\C=C\[C@H](C)[C@H](O)[C@@H](C)[C@@H](O)[C@@H](C)[C@H](OC(C)=O)[C@@H]1C [rifaximin polymorph α]	–	–	substantially insoluble
